According to patent publication US20110097274A1, “Carbon-11 and fluorine-18 labeled radioligands for positron emission tomography (PET) imaging for the brain serotonin transporters” (priority 2002, published 2011):
Where “and” joins values, the source holds several entries; their conditions need not be identical. Identical values can stand only once. Like-named read-outs stand apart in the source and are kept apart here.

How the values were obtained:
[1] = Plasma free fraction (f1) and filter retention by ultrafiltration; type: in vitro ADME, baboon; settings: mean ± SD of four experiments
Procedure: Plasma and ultrafiltrate activities were counted, and f1 was calculated as the ratio of ultrafiltrate activity to total plasma activity. Triplicate aliquots of the radioligand in pH 7.4 Tris buffer were also processed to determine the filter retention of free tracer.

SERT = test: Baboon PET imaging: brain uptake, kinetic analysis and SERT parameters; type: in vivo; settings: for Kp: male, baboon, brain, intravenous
How it was run: (§1)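 Two isoflurane-anaesthetised adult male baboons, each radioligand tested twice (test-retest); i.v. bolus, 91 min 3D emission scan with arterial sampling, MRI-defined regions. Brain uptake as % ID g^−1, with peak time and washout; VT from one-tissue compartment model (K1/k2) using arterial plasma input.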

[2] = as above; type: in vivo; settings: male, baboon, intravenous, baboons
How it was run: as §1

[3] = BP = VT ROI − VT CER, baboons, mean ± SD of four experiments
[4] = Mean ± SD of four experiments in two baboons
[5] = baboons, mean ± SD of four experiments
[6] = last scan 90 minutes, baboons, mean ± SD of four experiments
[7] = one-tissue compartment model, baboons, mean ± SD of four experiments

Compound: CN(C)Cc1ccccc1Sc1ccc(C#N)cc1N [[^11C]DASB]
- Filter retention ([1]; activity remaining on filter, radioligand dissolved in saline): 19.2 ± 4.7%
- fraction unbound at 20 minutes ([1]; male, baboon plasma, ultrafiltration): 0.135 ± 0.017
- Binding potential Cingulate Cortex (SERT; [3]): 3.8 ± 0.8 mL/g
- Binding potential Hippocampus (SERT; [3]): 10.0 ± 1.3 mL/g
- Binding potential Midbrain (SERT; [3]): 29.1 ± 4.0 mL/g
- Binding potential Occipital Cortex (SERT; [3]): 2.0 ± 1.1 mL/g
- Binding potential Striatum (SERT; [3]): 14.4 ± 1.5 mL/g
- Binding potential Temporal Cortex (SERT; [3]): 5.1 ± 1.9 mL/g
- Binding potential Thalamus (SERT; [3]): 30.2 ± 4.9 mL/g
- Equilibrium specific to non-specific partition coefficient (V3″) Cingulate Cortex (SERT; Baboon A, single experiment): 0.26 and 0.25
- Equilibrium specific to non-specific partition coefficient (V3″) Hippocampus (SERT; Baboon A, single experiment): 0.48 and 0.65
- Equilibrium specific to non-specific partition coefficient (V3″) Midbrain (SERT; Baboon A, single experiment): 1.46 and 1.66
- Equilibrium specific to non-specific partition coefficient (V3″) Occipital Cortex (SERT; Baboon A, single experiment): 0.15 and 0.18
- Equilibrium specific to non-specific partition coefficient (V3″) Striatum (SERT; Baboon A, single experiment): 0.72 and 0.89
- Equilibrium specific to non-specific partition coefficient (V3″) Temporal Cortex (SERT; Baboon A, single experiment): 0.34 and 0.42
- Equilibrium specific to non-specific partition coefficient (V3″) Thalamus (SERT; Baboon A, single experiment): 1.42 and 1.68
- Equilibrium specific to non-specific partition coefficient (V3″) Cingulate Cortex (SERT; Baboon B, single experiment): 0.21 and 0.16
- Equilibrium specific to non-specific partition coefficient (V3″) Hippocampus (SERT; Baboon B, single experiment): 0.62 and 0.54
- Equilibrium specific to non-specific partition coefficient (V3″) Midbrain (SERT; Baboon B, single experiment): 1.64 and 1.96
- Equilibrium specific to non-specific partition coefficient (V3″) Striatum (SERT; Baboon B, single experiment): 0.83 and 0.87
- Equilibrium specific to non-specific partition coefficient (V3″) Temporal Cortex (SERT; Baboon B, single experiment): 0.21
- Equilibrium specific to non-specific partition coefficient (V3″) Thalamus (SERT; Baboon B, single experiment): 1.79 and 2.07
- Equilibrium specific to non-specific partition coefficient (V3″) Cingulate Cortex (SERT; [4]): 0.22 ± 0.04
- Equilibrium specific to non-specific partition coefficient (V3″) Hippocampus (SERT; [4]): 0.58 ± 0.08
- Equilibrium specific to non-specific partition coefficient (V3″) Midbrain (SERT; [4]): 1.68 ± 0.21
- Equilibrium specific to non-specific partition coefficient (V3″) Occipital Cortex (SERT; [4]): 0.11±0.06
- Equilibrium specific to non-specific partition coefficient (V3″) Striatum (SERT; [4]): 0.83 ± 0.08
- Equilibrium specific to non-specific partition coefficient (V3″) Temporal Cortex (SERT; [4]): 0.29 ± 0.10
- Equilibrium specific to non-specific partition coefficient (V3″) Thalamus (SERT; [4]): 1.74 ± 0.27
- K1, average of all regions and all animals (SERT; baboons): 1.21 ± 0.22 mL/g/min
- k2, average of all regions and all animals (SERT; baboons): 0.047 ± 0.018 min⁻¹
- V3″ expressed in percentage of [^11C]McN 5652 V3″ (SERT; baboons, combining all regions): 142±29%
- Mean regional peak uptake time (SERT; baboons, mean of all regions): 19 ± 9 min
- Mean regional wash-out (% decrease between peak time and last scan) (SERT; baboons, mean of all regions): 52±19%
- Regional uptake peak time Cerebellum (SERT; [5]): 12 ± 5 min
- Regional uptake peak time Cingulate Cortex (SERT; [5]): 14 ± 3 min
- Regional uptake peak time Hippocampus (SERT; [5]): 22 ± 10 min
- Regional uptake peak time Midbrain (SERT; [5]): 27 ± 13 min
- Regional uptake peak time Occipital Cortex (SERT; [5]): 16 ± 4 min
- Regional uptake peak time Striatum (SERT; [5]): 22 ± 10 min
- Regional uptake peak time Temporal Cortex (SERT; [5]): 19 ± 5 min
- Regional uptake peak time Thalamus (SERT; [5]): 24 ± 10 min
- Total brain uptake at 45 min (SERT; baboons, region encompassing the entire brain): 0.013±0.002 % ID g^−1
- Regional activity wash-out: % decrease from peak to last scan, Cerebellum (SERT; [6]): 68 ± 14%
- Regional activity wash-out: % decrease from peak to last scan, Cingulate Cortex (SERT; [6]): 64 ± 10%
- Regional activity wash-out: % decrease from peak to last scan, Hippocampus (SERT; [6]): 46 ± 19%
- Regional activity wash-out: % decrease from peak to last scan, Midbrain (SERT; [6]): 32 ± 19%
- Regional activity wash-out: % decrease from peak to last scan, Occipital Cortex (SERT; [6]): 65 ± 11%
- Regional activity wash-out: % decrease from peak to last scan, Striatum (SERT; [6]): 49 ± 18%
- Regional activity wash-out: % decrease from peak to last scan, Temporal Cortex (SERT; [6]): 58 ± 13%
- Regional activity wash-out: % decrease from peak to last scan, Thalamus (SERT; [6]): 36 ± 16%
- Kp (SERT; cingulate cortex, one-tissue compartment model, baboons, mean ± SD of four experiments, read-out: VT Cingulate Cortex): 21.1 ± 0.9
- Kp (SERT; hippocampus, one-tissue compartment model, baboons, mean ± SD of four experiments, read-out: VT Hippocampus): 27.3 ± 1.4
- Kp (SERT; midbrain, one-tissue compartment model, baboons, mean ± SD of four experiments, read-out: VT Midbrain): 46.4 ± 4.3
- Kp (SERT; occipital cortex, one-tissue compartment model, baboons, mean ± SD of four experiments, read-out: VT Occipital Cortex): 19.3 ± 1.5
- Kp (SERT; striatum, one-tissue compartment model, baboons, mean ± SD of four experiments, read-out: VT Striatum): 31.7 ± 1.7
- Kp (SERT; temporal cortex, one-tissue compartment model, baboons, mean ± SD of four experiments, read-out: VT Temporal Cortex): 22.5 ± 2.1
- Kp (SERT; thalamus, one-tissue compartment model, baboons, mean ± SD of four experiments, read-out: VT Thalamus): 47.5 ± 5
- K1 Cerebellum (SERT; [7]): 1.36 ± 0.24 mL/g/min
- K1 Cingulate Cortex (SERT; [7]): 1.26 ± 0.09 mL/g/min
- K1 Hippocampus (SERT; [7]): 0.98 ± 0.20 mL/g/min
- K1 Midbrain (SERT; [7]): 1.23 ± 0.20 mL/g/min
- K1 Occipital Cortex (SERT; [7]): 1.15 ± 0.24 mL/g/min
- K1 Striatum (SERT; [7]): 1.27 ± 0.21 mL/g/min
- K1 Temporal Cortex (SERT; [7]): 1.05 ± 0.09 mL/g/min
- K1 Thalamus (SERT; [7]): 1.35 ± 0.29 mL/g/min
- K2 Cerebellum (SERT; [7]): 0.078 ± 0.013 min⁻¹
- K2 Cingulate Cortex (SERT; [7]): 0.060 ± 0.004 min⁻¹
- K2 Hippocampus (SERT; [7]): 0.036 ± 0.006 min⁻¹
- K2 Midbrain (SERT; [7]): 0.027 ± 0.005 min⁻¹
- K2 Occipital Cortex (SERT; [7]): 0.059 ± 0.011 min⁻¹
- K2 Striatum (SERT; [7]): 0.040 ± 0.007 min⁻¹
- K2 Temporal Cortex (SERT; [7]): 0.047 ± 0.004 min⁻¹
- K2 Thalamus (SERT; [7]): 0.028 ± 0.006 min⁻¹
- VT Cerebellum (VT CER, nonspecific distribution volume) (SERT; [7]): 17.3 ± 0.5 mL/g
- fraction unbound ([2]; brain nonspecific distribution volume (cerebellum), calculated from f1 and cerebellar VT, read-out: f2 (free fraction in the nonspecific distribution volume)): 0.0077 ± 0.0008
- Kp ([2]; brain regions (average of all regions), read-out: VT, average of all regions and all animals): 29.2 ± 11.5
- Kp ([2]; cerebellum, one-tissue compartment model, mean ± SD of four experiments, read-out: VT Cerebellum (VT CER, nonspecific distribution volume)): 17.3 ± 0.5
